For 71 compounds, EC50, IC50 and outcome results are on record in PubChem BioAssay AID179 (DTP/NCI, 2004).

This test relates to CEM cells HIV-1 protection, formazan growth assay. As to the kind of experiment: NCI AIDS Antiviral Assay. Particulars: for IC50: measured here: growth of uninfected CEM cells. In outline:
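Protection of CEM cells against HIV-1 was scored from cell growth (soluble formazan) across five concentrations, with parallel uninfected cells. Lack of protection may reflect toxicity.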

Each structure is given as a SMILES string. Activity calls are given as the source filed them.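 Rule for the calls: active = compounds giving half or more protection of infected cells from virus-caused growth loss, again on retest; inactive = the rest.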 Where a SMILES comes first, the peptide text is derived from it.

One may read the EC50 as the concentration giving half of the maximal effect. The term IC50 denotes the concentration at which inhibition is half-maximal. A high value points to lower potency.

As to `NC(N)NCCCc1cn2c(n1)C1CCCN1C(=O)C2Cc1ccccc1` (stereo not drawn), the EC50 is above 676 µM and the IC50 is above 676 µM.
For the compound `C=CCSSSCC=C`, the EC50 is above 120 µM and the IC50 is 63.1 µM.
On to `Nc1[nH]c(=O)nc(Nc2ccc(Cl)c(Cl)c2)c1N=O`, for which the EC50 was above 200 µM and the IC50 amounted to 13.5 µM.
On the same counts, the results for `NC(=O)C(F)(F)C(N)=O` are above 200 µM and above 200 µM.
With `COc1ccccc1NC(=S)N/C=C(\C#N)S(=O)(=O)c1ccc(C)cc1`, the EC50 was above 200 µM and the IC50 is above 200 µM.
`COC(=O)N1C2C3CC4C2C4C3N1C(=O)OC`: the result was inactive.
Consider `CCOP(=O)(OCC)/C(C#N)=C/c1ccc(Br)cc1`, for which the EC50 was above 275 µM and the IC50 came to 162 µM.
For the compound `COC(=O)N1CC[C@]2(CC=C(C)C)c3ccccc3N(S(=O)(=O)c3ccccc3)[C@H]12`, the EC50 is above 100 µM and the IC50 turned out to be 24.5 µM.
Take `N#Cc1c2c(cn3c1nc1ccccc13)Cc1ccccc1-2`: the EC50 was above 200 µM and the IC50 is above 200 µM.
Regarding `COC(=O)/C(C#N)=C(\Nc1ccccc1)N1CCCC1`, the EC50 was above 200 µM and the IC50 was determined as 138 µM.
Turning to `O=C1/C=C(/c2ccc(O)cc2)[C@H](O)Cc2ccc(OC3OC(CO)C(O)C(O)C3O)cc2O1` (stereo partly drawn) (tested in a mixture with another compound), the EC50 is above 251 µM and the IC50 is above 251 µM.
Take `O=C(Nc1cccc(O)c1)C(=O)C(C(=O)c1ccccc1F)C1OC(=O)c2ccccc21` (stereo not drawn): the EC50 was above 302 µM and the IC50 was 24 µM.
Regarding `CC(C)=CCC[C@@H](C)C1=C(Nc2ccccc2)C(O)=C(C)C(=O)C1=O`, the EC50 is above 200 µM and the IC50 came out at 3.02 µM.
For the compound `CC(=O)[CH-]C(=O)c1ccccc1.CC(=O)[CH-]C(=O)c1ccccc1.[CH2-]CCC.[CH2-]CCC.[Sn+4]`, the EC50 was above 46.8 µM and the IC50 was 0.776 µM.
Take `COc1cc(/C=C2\C(=O)N(C(=O)c3ccc(NC(C)=O)cc3)N=C2C)ccc1O`: the EC50 is above 66.1 µM and the IC50 is above 66.1 µM.
For `C[C@]12C=CC(=O)C=C1CC[C@H]1[C@@H]3C[C@@H](O)[C@](O)(C(=O)CO)[C@@]3(C)C[C@H](O)[C@@]12F`, the outcome was inactive.
In the case of `COc1cccc(NC(=O)CC(=O)NN)c1`, the EC50 is above 200 µM and the IC50 is above 200 µM.
Turning to `Cn1c(=O)c2c(nc3n2C(CCl)CO3)n(C)c1=O` (stereo not drawn), the result was inactive.
Take `COc1ccc(-c2c3c(nc4[nH]c(=S)[nH]c(=S)c24)CCCC3)cc1OC`: the EC50 was above 200 µM and the IC50 came out at 49 µM.
Consider `Nc1ncnc2c1ncn2C1CC(CO)C(CO)C1` (stereo not drawn), for which the EC50 is above 95.5 µM and the IC50 was above 95.5 µM.
For the compound `CCOC(=O)C1C(C(C)C)C2(C#N)C(=N)OC1(C)C2(C#N)C#N` (stereo not drawn), the EC50 was above 200 µM and the IC50 came to 49 µM.
On to `NC(=S)N/N=C/c1cc2c3c(c1)CCCN3CCC2`, for which the EC50 is above 200 µM and the IC50 was above 200 µM.
`C[C@H](N)C(O)C/C=C\C/C=C\C/C=C\C/C=C\C/C=C\C/C=C\CCCCCCC(O)[C@H](C)N` (stereo partly drawn): the result was inactive.
For `COc1c(O)c2ccccc2c2cc(O)ccc12`, the EC50 is above 1050 µM and the IC50 stood at 5.25 µM.
The corresponding values for `O=C(CCCN1CCC(O)(c2cccc(C(F)(F)F)c2)CC1)c1ccc(F)cc1` are above 302 µM and 53.7 µM.
`Cc1ccc2c(c1)C(C(=O)N[C@@H]1C(=O)N3[C@@H]1SC(C)(C)[C@@H]3C(=O)O)OCCC2` (stereo partly drawn): the EC50 is above 200 µM and the IC50 is above 200 µM.
As to `C=CCN1COc2c(cc3c4c(cccc24)C(=O)O3)C1`, the EC50 is above 26.9 µM and the IC50 amounted to 4.27 µM.
For the compound `COC(=O)CCCCC(c1cc(Cl)c(OC)c(C(=O)OC)c1)c1cc(Cl)c(OC)c(C(=O)OC)c1`, the EC50 is above 200 µM and the IC50 is 13.5 µM.
Consider `O=C(SC1=NCCN1)c1cccc2ccccc12`, for which the EC50 is above 200 µM and the IC50 worked out at 28.8 µM.
The corresponding values for `COc1ccc(CN2C(=O)C(=O)N(C)C2=O)c2ccccc12` are above 200 µM and 25.7 µM.
In the case of `O=C1C=C(c2c(O)ccc3ccccc23)c2cc(O)ccc2C1=O`, the EC50 was above 112 µM and the IC50 came to 6.61 µM.
`NC1=NS(=O)(=O)Nc2nc(-c3ccc([N+](=O)[O-])cc3)[nH]c21`: the EC50 was above 200 µM and the IC50 is above 200 µM.
`Brc1cccc(C2ON=C(c3ccccc3)N2C23CC4CC(CC(C4)C2)C3)c1` (stereo not drawn): the EC50 was above 200 µM and the IC50 was above 200 µM.
On to `CCC(C)C(NC(=O)C(N)CCC(=O)O)C(=O)NC(CCCCN)C(=O)NCC(=O)NC(C(=O)NC(C(=O)NC(CC(N)=O)C(=O)NC(CC(C)C)C(=O)NCC(=O)NC(CCCCN)C(=O)O)C(C)O)C(C)O` (stereo not drawn) (H-EIKGTTNLGK-OH; configuration not given here), for which the outcome was inactive.
Take `COC1(OC)C=NNc2nccn21`: the EC50 was above 200 µM and the IC50 is above 200 µM.
With `CC#CC(O)(C(=O)OC1CC(C)N(C)C(C)(C)C1)C1CCCC1` (stereo not drawn), the EC50 is above 200 µM and the IC50 was above 200 µM.
Regarding `O=c1[nH]c2nc3ccccc3c(=O)n2/c1=C/c1ccc(Cl)cc1`, the EC50 was above 200 µM and the concentration for half-maximal inhibition (IC50) was determined as 11.2 µM.
Consider `CCN(CC)c1ccc(N=Nc2ccc([N+](=O)[O-])cc2OC(=O)/C=C/c2ccccc2)c(OC(=O)/C=C/c2ccccc2)c1`, for which the EC50 was above 4.57 µM and the IC50 worked out at 0.851 µM.
Turning to `CCCCCCCCCCCCCCCCOC[C@@H](COC(c1ccccc1)(c1ccccc1)c1ccccc1)O[P+](=S)OC` (stereo partly drawn), the EC50 was above 200 µM and the IC50 was 22.4 µM.
Consider `Cc1cc(C)nc(NS(=O)(=O)c2ccc(Nc3c4ccc(Cl)cc4nc4c(C(=O)NCCN(C)C)cccc34)cc2)n1`, for which the EC50 is above 214 µM and the IC50 stood at 89.1 µM.
On the same counts, the results for `COCN1C(=O)[C@@H]2CCCN2C(=O)c2cc([N+](=O)[O-])ccc21` are above 200 µM and 102 µM.
The corresponding values for `COC(=O)CC1NC(=O)C1C(C)(OC)OC` (stereo not drawn) are 191 µM and 251 µM.
Consider `CCCCCC1C(=O)N2C=C(c3ccccc3)c3ccccc3N2C1=O` (stereo not drawn), for which the result was inactive.
With `COC(=O)C1CCC(=O)N1C(c1ccccc1)c1cc(OC)c(OC)c(OC)c1` (stereo not drawn), the EC50 was above 200 µM and the IC50 was 34.7 µM.
For the compound `CCOC(=O)c1cnc(NC)n2nc(-c3ccccc3)nc12`, the outcome was inactive.
With `CCN(CC)C1=CC(=O)c2nc(C)c(C)nc2C1=O`, the result was inactive.
Turning to `COC1OC(CS)C(N)C1OS(C)(=O)=O` (stereo not drawn), the EC50 was above 200 µM and the IC50 was found to be 155 µM.
On to `CC1(C)OC[C@@H](O)[C@H](Br)CO1`, for which the EC50 was above 200 µM and the IC50 came out at 77.6 µM.
As to `CCCCCCCCCCCO/N=C\c1c2c(O)c3c(O)c(C)c4c(c3c1O)C(=O)C(C)(O/C=C\C(OC)C(C)C(OC(C)=O)C(C)C(O)C(C)C(O)C(C)/C=C\C=C(\C)C(=O)N2)O4` (stereo not drawn), the EC50 was above 200 µM and the IC50 came out at 3.02 µM.
For `CC1(C)OC2C(O)CN3CCS[C@H]3C2O1` (stereo partly drawn), the EC50 is above 200 µM and the IC50 was above 200 µM.
In the case of `CCOC(=O)c1ccc(CSc2ccc(Cl)cc2)cc1`, the EC50 was above 4.68 µM and the IC50 is above 4.68 µM.
`CCN(CC)C(C(=O)Nc1c(C)cccc1C)N(CC)CC`: the EC50 was above 200 µM and the IC50 is above 200 µM.
Regarding `Cc1cn(COCCCSc2ccccc2)c(=O)[nH]c1=O`, the EC50 is 21.9 µM and the IC50 was determined as 166 µM.
Turning to `Cn1nnc2c(C(N)=O)ncn2c1=O`, the EC50 is above 1290 µM and the IC50 stood at 776 µM.
For the compound `CC1(CO)C2CC3CN(C(=O)c4ccccc4)C(C2)[C@]31C` (stereo partly drawn), the outcome was inactive.
On to `Cc1c(Cc2ccccc2)n(COCCCO)c(=O)[nH]c1=O`, for which the EC50 was 138 µM and the IC50 was above 200 µM.
On the same counts, the results for `COc1cc2c(cc1OC)CC(=O)c1cc(OC)c(OC)cc1/C=C\2` are above 12.6 µM and 7.59 µM.
Turning to `Cc1ccc2c(c1)P(=O)(O)c1cc(C)ccc1O2`, the EC50 was above 200 µM and the IC50 was above 200 µM.
With `CSc1nc(N)n(C(=O)c2ccc([N+](=O)[O-])cc2)n1`, the EC50 was above 13.5 µM and the half-inhibitory concentration (IC50) was above 13.5 µM.
For `O=c1ccs[nH]1`, the EC50 was above 676 µM and the IC50 worked out at 6.46 µM.
On to `CCOC(=O)/C(=C\c1ccc2ccccc2c1)P(=O)(OCC)OCC`, for which the EC50 was above 186 µM and the IC50 came out at 5.37 µM.
With `CC(C)CS(=O)(=O)/C(=C(\c1ccc(Br)cc1)S(=O)(=O)CC(C)C)c1ccc(Br)cc1`, the EC50 is above 1.29 µM and the IC50 was above 1.29 µM.
Take `CC(=O)/C(=C/n1ccc(=O)[nH]c1=S)C(=O)Nc1ccccc1`: the EC50 was above 200 µM and the IC50 is above 200 µM.
For `O=C(Nc1ccn(CCOC(=O)c2ccccc2)c(=O)n1)c1ccccc1`, the EC50 was above 186 µM and the IC50 was above 186 µM.
Take `CC(C)C(/C=C/c1ccc(Cl)c(Cl)c1)=N\NC(=O)N/N=C(/C=C/c1ccc(Cl)c(Cl)c1)C(C)C`: the EC50 is above 200 µM and the IC50 was above 200 µM.
Consider `O=C(O)c1ccc(CS(=O)(=O)c2ccccc2)cc1`, for which the EC50 was above 912 µM and the IC50 was above 912 µM.
In the case of `FC1(F)ON2CCc3ccccc3C2[C@H]1c1ccccc1` (stereo partly drawn), the EC50 was above 200 µM and the IC50 is 15.5 µM.
The corresponding values for `CCOC(=O)/C=C/[C@@H](CC)O[Si](C(C)C)(C(C)C)C(C)C` are above 200 µM and above 200 µM.
For the compound `O=c1n(Cc2ccccc2)c(=O)n2c(=O)n(Cc3ccccc3)c(=O)n12`, the EC50 is above 200 µM and the IC50 was found to be 148 µM.
`CCN(CC)C(=S)N/N=C/c1ccccn1`: the EC50 was above 0.2 µM and the IC50 came out at 0.00363 µM.
In the case of `O=C1NC(=O)C2(c3ccccc3)CCN1C2=O` (stereo not drawn), the EC50 was above 200 µM and the IC50 was above 200 µM.
